Reference: patent US11091429B2, “Organic compounds” (Givaudan SA, priority 2012, dated 2021)
“Also recorded” adds a separate entry of the source.

Experiments:
[1] = Test in pear flavoured drink; conditions: water, 0.1% citric acid, pear flavour 0.025%
Procedure: (§1) Samples were prepared and evaluated by expert tasters. Tasters were asked to describe the samples focusing on authentic taste, mouthfeel, fullness, salty-ness, salivation, umami, sweetness, juiciness, richness, long lastingness and fattiness.
Test in Pear Flavoured Drink:
Base: water, 7% sugar, 0.1% citric acid, proprietary pear flavour at 0.025%
(§2) Samples were evaluated by expert tasters. Tasters were asked to describe the samples focusing on authentic taste, mouthfeel, fullness, salty-ness, salivation, umami, sweetness, juiciness, richness, long lastingness and fattiness.
Comparison in a Pear Drink
Base is water, 8% sugar, 0.1% citric acid, proprietary pear flavour at 0.025%

[2] = Test in peach flavoured drink; conditions: 1 ppm; water, 8% sugar, 0.1% citric acid, peach flavour 0.05%
Procedure: as §1
Test in Peach Flavoured Drink:
Base is water, 8% sugar, 0.1% citric acid, and proprietary peach flavour at 0.05%
as §2
Comparison in a Peach Drink
Base is water, 8% sugar, 0.1% citric acid, proprietary peach flavour at 0.05%
(§3) Samples were evaluated by expert tasters. Tasters were asked to describe the samples focusing on authentic taste, mouthfeel, fullness, salivation, salty-ness, umami, sweetness, juiciness, richness, long lastingness and fattiness.

[3] = Tasting in mango juice drink, 1% clear mango juice; conditions: 8% sucrose, 0.1% citric acid, mango flavour 0.05%
Procedure: Comparison in a Mango Juice Drink
Base is 8% sucrose, 0.1% citric acid, 1% clear mango juice, and a proprietary mango flavour at 0.05%.
as §2
Base is water, 8% sucrose, 0.1% citric acid, 1% clear mango juice, proprietary mango flavour @ 0.05%
as §3
Base is water, 8% sucrose, 0.1% citric acid, 1% clear mango juice, proprietary mango flavour @0.05%
(§4) Samples were evaluated by expert tasters. Tasters were asked to describe the samples focusing on authentic taste, mouthfeel, fullness, salty-ness, salivation, umami, sweetness, juiciness, richness, long lastingness and fattiness
Base is 8% sucrose, 0.1% citric acid, 1% clear mango juice, proprietary mango flavour @ 0.05%
(§5) Samples were evaluated by expert tasters. Tasters were asked to describe the samples focusing on authentic taste, mouth feel, fullness, salivation, salty-ness, umami, sweetness, juiciness, richness, long lastingness and fattiness
Base is water, 8% sucrose, 0.1% citric acid, 1% clear mango juice, proprietary mango flavour @ 0.05%.
Test in a Mango Juice Drink

[4] = Tasting in vanilla flavoured milk 3.0% fat; conditions: 4% sugar, vanillin 10 ppm, vanilla extract 0.03%
Procedure: Vanilla Flavoured Milk 3.0% Fat
In a 3% fat milk drink, sweetened with 4% sucrose by weight, flavoured with Vaniline @ 10 ppm and a Vanilla extract @ 0.03% C18:2-gaba, C18:1-ACOA and C18:1-glu were added at 0.5 or 2 ppm.
Samples were evaluated by expert tasters. Tasters were asked to describe the samples focusing on authentic taste, mouthfeel, fullness, salivation, sweetness, juiciness, richness, long lastingness and fattiness.
Base: Milk 3% fat, 4% sugar, vanillin 10 ppm, vanilla extract 0.03%

[5] = Test in chocolate flavoured drink; conditions: water, 4% sucrose, chocolate flavour 0.03%
Procedure: as §1
Test in Chocolate Flavoured Drink:
Base: Water, 4% sucrose, proprietary chocolate flavor at 0.03%
as §2
Test in Chocolate Flavoured Drink Flavoured
Base: Water, 4% sucrose, proprietary chocolate flavour @ 0.03%

[6] = Tasting in vanilla milk 0.15% fat; conditions: 4% sucrose, Vaniline 10 ppm + vanilla extract 0.03%
Procedure: as §1
Base: Milk 0.15% fat, sweetened with 4% sucrose by weight, flavoured with proprietary
Vaniline flavour @ 10 ppm+Vanilla ext. @ 0.03%
as §2
Comparison in a Vanilla Milk Drink
Vaniline @ 10 ppm+Vanilla extract @ 0.03%
Base: Milk 0.15% fat, sweetened with 4% sucrose by weight, flavoured with proprietary Vaniline @ 10 ppm+Vanilla extract @ 0.03%

[7] = Tasting in strawberry drink; conditions: 0.5 ppm; 7% sucrose, 0.1% citric acid, strawberry flavour 0.015%
Procedure: as §1
Comparison in a Strawberry Drink
Base is 7% sucrose, 0.1% citric acid, and a proprietary strawberry flavour @ 0.015%
as §2
Base is water, 7% sucrose, 0.1% citric acid, proprietary strawberry flavour @ 0.015%
as §3
Test in a Strawberry Drink
Base is 7% sucrose, 0.1% citric acid, proprietary strawberry flavour @ 0.015%

[8] = Tasting in Activa strawberry yoghurt; conditions: 2 ppm, 13.5% sugar, 3.2% fat
Excerpt: Activa Strawberry Yoghurt
In a Full fat, Activa strawberry flavoured yoghurt containing 13.5% sugar, 3.2% fat C18:2-gaba and C18:0-leu at 2 ppm

[9] = Tasting in strawberry flavoured sugar sweetened yoghurt; conditions: 1.5% fat yoghurt, 8% sucrose, strawberry flavour 0.015%
Procedure: Strawberry Flavoured Sugar Sweetened Yoghurt
In a 1.5% fat yoghurt base, sweetened with 8% sucrose by weight, flavoured with a proprietary strawberry flavour @ 0.015% several different N-acyl aminoacids were added.
as §1
Test in a Strawberry Yoghurt
Base: Yoghurt 1.5% fat yoghurt, 8% sucrose, proprietary strawberry flavour @ 0.015%
as §3

[10] = Test in orange beverage; conditions: 1 ppm; water, 7% sugar (8% sucrose elsewhere in the source), 0.1% citric acid, orange flavour 0.06%
Procedure: as §2
Base is water, 7% sugar, 0.1% citric acid, proprietary orange flavour @ 0.06%.
as §4
Base is water, 7% sugar, 0.1% citric acid, proprietary orange flavour @ 0.06%
as §5
Samples were evaluated by expert tasters. Tasters were asked to describe the samples focusing on authentic taste, mouthfeel, fullness, salivation, sweetness, juiciness, richness, long lastingness and fattiness
Comparison in an Orange Drink
Base: water, 8% sucrose, 0.1% citric acid, proprietary orange flavour @ 0.06%.

[11] = Test in lemon beverage; conditions: 1 ppm; water, 7% sucrose, 0.15% citric acid, lemon flavor
Procedure: as §2
Basis water, 7% sucrose, 0.15% citric acid, proprietary lemon flavor
as §4

[12] = Tasting in Maggi beef bouillon; conditions: Maggi beef bouillon 1 tablet in 500 ml of hot water
Procedure: as §1
Comparison in Beef Bouillon
Base is Maggi beef bouillon 1 tablet in 500 ml of hot water
as §2, §3, §4, §5

[13] = Tasting in soy sauce; conditions: 0.5 ppm in Kikkoman soy sauce low salt
Procedure: (§6) The following formulations were prepared and tasted by trained panelists.
Salt level pure product between 5-40%
Salt level in application 0.3-1.0%
as §1
Test on Kikkoman Soy Sauce Low Salt
Base is Kikkoman soy sauce
Samples were prepared and evaluated by expert tasters. Tasters were asked to describe the samples focusing on authentic taste, mouthfeel, fullness, salivation, salty-ness, umami, sweetness, juiciness, richness, long lastingness and fattiness.

[14] = Tasting in mango still beverage, 4% clear mango juice; conditions: 0.5 ppm; 4% clear mango juice (30% reduced juice)
Procedure: (§7) Mango Flavoured Still Beverage Containing Different Levels of Juice,
(§8) In a Mango flavoured still beverage, sweetened with 8% sucrose and containing 0.1% citric acid and 1%, 4% and 6% clear mango juice flavoured with a proprietary Mango flavour @ 0.05%, C18:2-gaba and C18:2-Pro were added, as such (separate) and in combination.
(§9) All samples were evaluated by expert tasters. Tasters were asked to describe the samples focusing on authentic taste, juicy mouthfeel, enhancement, richness, juiciness, long lastingness, salivation, sweetness.
In a Mango flavoured still beverage, sweetened with 8% sucrose & containing 0.1% citric acid and 4% clear mango juice flavoured with Mango flavour @ 0.05%, C18:2-gaba and C18:2-Pro were added, as such (separate) and in combination.
Base is water, 8% sucrose, 0.1% citric acid, 4% clear mango juice (30% reduced juice), flavoured with Mango flavor, dosed at 0.05%

[15] = Test on Tang; conditions: 1 ppm, orange flavoured Tang
Procedure: In an orange flavoured Tang powdered soft drink (market product) sweetened with sucrose plus high intensity sweetener and containing citric acid, C18:2-gaba and C18:2-pro were tested.
All samples were evaluated by expert tasters. Tasters were asked to describe the samples focusing on authentic taste, mouthfeel & body, enhancement, richness, juiciness, long lastingness, salivation, sweetness, masking off notes of high intensity sweetener
Base is Orange Flavoured Tang

[16] = Tasting in mango still beverage, 6% clear mango juice; conditions: 0.5 ppm; 6% clear mango juice (full juice)
Procedure: as §7, §8, §9
In a Mango-flavoured still beverage, sweetened with 8% sucrose & containing 0.1% citric acid and 6% clear mango juice flavoured with Mango flavour@0.05%, C18:2-gaba and C18:2-Pro were added, as such (separate) and in combination.
Base is water, 8% sucrose, 0.1% citric acid, 6% clear mango juice (full juice), flavoured with Mango flavor, dosed at 0.05%.

[17] = Tasting on fried potato snack product; conditions: 35% fat, cheese seasoning
Procedure: as §6
A snack product consisting of a fried potato base, containing 35% fat and flavored with cheese seasoning containing salt, MSG, dairy, organic acids, sugars, and a flavour formulation. The following compounds were added to the snack product at the indicated levels and the tasting results are reported: […]

[18] = Tasting in beef bouillon base; conditions: 0.5% fat
Procedure: as §6
Beef Bouillon base 1.0% salt, 0.5% fat

[19] = 1 ppm, 7% sugar (8% elsewhere in the source)

Molecule: CCCCCCCC/C=C\CCCCCCCC(=O)NC(CCC(=O)O)C(=O)O (centres unmarked) [C18:1-glu]
- tasting result ([1]; 0.5 ppm, 7% sugar): nice fatty, juicy, long lasting
- tasting result [1, 19]: ripe, authentic pear, juicy, fatty skin like
- tasting result [2]: ripe, much more juicy, long lasting, more fatty and sweet
- tasting result ([3]; 1 ppm): heavy, jammy, enhanced mango, more sulfury, sl umami
- tasting result ([4]; 2 ppm): full, fatty, vanilla bean enhanced, whipped cream like
- tasting result ([5]; 0.5 ppm): full cocoa, nice sweet
- tasting result ([6]; 1 ppm): full, beany, more sweet; also recorded: sweet vanillic
- tasting result [7]: nice mouthfeel, more natural strawberry, full juicy

Molecule: CCCCCCCCCCCCCCCCCC(=O)NC(CC(C)C)C(=O)O (centres unmarked) [C18:0-leu]
- tasting result [8]: very juicy strawberry full, 3D, stronger strawberry, long lasting and creamy
- tasting result ([3]; 2 ppm): fruity strawberry like, ripe, long lasting
- tasting result ([9]; 2 ppm): fruity authentic strawberry, stronger strawberry, ripe, long lasting, juicy, creamy yoghurt
- tasting result ([9]; 2 ppm, listed as C18:0 leu): Very juicy full, 3D, stronger nicer strawberry, long lasting nice creamy aftertaste
- tasting result ([9]; 5 ppm): Very juicy full, 3D, stronger nicer strawberry, salivating long lasting
- tasting result [7]: fruity authentic strawberry, stronger strawberry, ripe, long lasting, juicy

Molecule: CCCCCC/C=C\CCCC(=O)NC(CCSC)C(=O)O (centres unmarked) [C12:1-met]
- tasting result [10]: nice orange, fresh
- tasting result [11]: fresh, slightly more citral
- tasting result ([3]; 1 ppm): ripe full, more juicy, slightly metallic
- tasting result ([12]; 1 ppm): more salty

Molecule: N-oleoyl 1-amino-cyclopropyl carboxylic acid [C18:1-ACCA]
- tasting result [13]: Strong upfront saltiness lingering, very strong saltiness
- tasting result ([4]; 0.5 ppm): sweet, sugar-like, vanillic

Molecule: CCCCC/C=C\C/C=C\CCCCCCCC(=O)N1CCC[C@H]1C(=O)O [C18:2-Pro, N-linoleoyl-Pro]
- tasting result [10]: very juicy, authentic orange
- tasting result [14]: more sweet, sugar-like, very juicy and long lasting sweet, salivating
- tasting result [11]: very juicy, more citral like, very authentic
- tasting result [15]: very fresh, enhances sweet juicy orange notes, characteristic of authentic fresh orange fruit. Additionally, the off-notes of the high intensity sweetener were suppressed
- tasting result ([3]; 0.5 ppm): more sweet, sugar-like, very juicy and long lasting sweet, salivating
- tasting result [16]: more sweet, sugar-like, very juicy and long lasting sweet, salivating, syrupy

Molecule: CCCCC/C=C\C/C=C\CCCCCCCC(=O)NC(CC(=O)O)C(=O)O (centres unmarked) [C18:2-asp, N-linoleoyl-Asp]
- tasting result [1, 19]: very juicy, authentic, texture like pear 3D
- tasting result [2]: fatty skin like, slight apple note
- tasting result ([3]; 1 ppm): fatty, authentic fruit like, slight raspberry and pear note
- tasting result ([5]; 2 ppm): cardboard, sweet diy
- tasting result ([6]; 2 ppm): sweet full very natural vanilla

Molecule: CCCCCCCC/C=C\CCCCCCCC(=O)NC(CCSC)C(=O)O (centres unmarked) [C18:1-met]
- tasting result [10]: very juicy fresh, authentic, juicy
- tasting result [11]: fresh, less floral, very juicy, very authentic
- tasting result ([3]; 1 ppm): sweeter, juicy, salivating
- tasting result ([17]; 0.25 ppm on fried potato snack): Salty, aged cheese, succulent
- tasting result ([17]; 0.5 ppm on fried potato snack): Increased cheese, creamy, salty and succulent
- tasting result ([12]; 1 ppm): very strong salty impact and aftertaste; also recorded: very strong salty impact and aftertaste, more fatty, mouthfeel, lingering full bodied
- tasting result ([12]; 25 ppb): more peppery, more salty
- tasting result ([12]; 50 ppb): more salty, more bouillon taste
- tasting result ([18]; 0.5 PPM in beef bouillon base 1.0% salt): Very salty and rich
- tasting result ([18]; 1.0 PPM in beef bouillon base 1.0% salt): Full bodied, long lasting, more mouthfeel
